Test results published in patent US10596296B2, “Heparan sulphates” (Agency for Science, Technology and Research, priority 2014, dated 2020).

System: chondrogenic differentiation of hMSCs
Assay: qPCR of day 3 chondrogenic micromass pellets (Example 1)
Type: cell-based, human
Settings: day 3; 10 ng/ml TGF-β1 with 10 μg/ml heparin
Method: Chondrogenic differentiation was carried out using a modified micromass culture system as described by Zhang et al. (32). Briefly, passage 4 hMSCs were harvested and resuspended in chemically defined chondrogenic media (PT-3003, Lonza) at 2×10^7 cells/ml. Droplets of 12.5 μl were then seeded into the middle of each well in a 24-well plate and left to adhere at 37° C. for 2 h, after which, 500 μl of chondrogenic media supplemented with either 10 ng/ml of TGF-β1 (100-21C, PeproTech) alone (Media) or TGF-β1 with 10 μg/ml of heparin (Sigma-Aldrich) (Media+Hep) was added to each well. The cell droplets coalesced into spherical masses after 24 h and the micromasses harvested on day 3. Human MSCs were cultured in 6-well plates in basal media for 24 h at a density of 10,000 cells/cm^2. TGF-β1 treatments were then prepared at either 1 ng/ml or 5 ng/ml alone or in the presence of either 10 μg/ml or 40 μg/ml of full length heparin, or 1 ng/ml of TGF-β1 with 10 μg/ml size-fractionated or selectively desulfated heparin, HS^PM, HS16+ or HS16−, and incubated at room temperature for 10 min before being added to the cells. Latent TGF-β1 (LTGF-β1) treatments were similarly prepared at 3.3 ng/ml alone or with 10 μg/ml of the various GAGs described above. For inhibitor studies, the cells were pre-treated for 30 min with 10 μM SB431542 (Sigma-Aldrich) or DMSO before treatment with TGF-β1. The cells were then subjected to the various TGF-β1 treatments for 1, 6 or 24 h and lysed in 2× Laemmli buffer, before being resolved on a 4-12% SDS-PAGE gel. Samples were then immunoblotted with antibodies against SMAD2/3 (#3102, Cell Signaling), phosphorylated SMAD2 (pSMAD2, #3108, Cell Signaling), phosphorylated SMAD3 (pSMAD3, #9520, Cell Signaling) and actin (MAB1501R, Millipore). Densitometry was carried out using Quantity One software (version 4.6.6, Bio-Rad). Total RNA was isolated from chondrogenic micromass pellets using TRIZOL reagent (Invitrogen, Life Technologies) according to the manufacturer's protocol. Reverse transcription was carried out on 1 μg RNA using the SuperScript® VILO™ cDNA Synthesis Kit (Invitrogen, Life Technologies) following the manufacturer's instructions, with the incubation at 42° C. being carried out for 2 h instead of 1 h. Each qPCR contained 40 ng cDNA, 1 μl TaqMan® primer-probe mix per gene, and 10 μl Taqman® Fast Universal PCR Master Mix (Applied Biosystems, Life Technologies) in a final volume of 20 μl. Thermal cycling conditions were 95° C. for 20 s, followed by 45 cycles of 95° C. for 3 s and 60° C. for 30 s. Each qPCR was run in duplicate and gene expression was normalized to HPRT1 expression to obtain the ΔCt value. […] Relative expression levels for each primer set were expressed as fold changes by the 2^−ΔΔCt method (36). […]

Substance: heparin
- COMP mRNA transcripts relative to Media (TGF-β1 alone): ~5 fold
- SOX9 mRNA transcripts relative to Media (TGF-β1 alone): ~5 fold
